Data taken from the supplement of paper PMC10307832.

How the values were obtained:
Test in all cases: relative viability (nuclei count vs DMSO), 5 days (fraction); higher = more cells survive
SGI-1776 + Alpelisib = compound: CN1CCC(CNc2ccc3ncc(-c4cccc(OC(F)(F)F)c4)n3n2)CC1 [SGI-1776] + Cc1nc(NC(=O)N2CCC[C@H]2C(N)=O)sc1-c1ccnc(C(C)(C)C(F)(F)F)c1 [Alpelisib] (partner 2 µM)
Outline: (§1)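 Relative viability was taken as the ratio of nuclei in treated wells to nuclei in vehicle wells. Lung cancer cell lines in 1536-well plates received compounds by pin tool one day after seeding, either one drug alone or a fixed anchor-drug dose plus five library-drug doses (not always all listed) in √10 steps. Nuclei were counted on 4× images after 5 days of treatment, and values are medians of duplicate plates.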

Entinostat + Vorinostat = compound: Nc1ccccc1NC(=O)c1ccc(CNC(=O)OCc2cccnc2)cc1 [Entinostat] + O=C(CCCCCCC(=O)Nc1ccccc1)NO [Vorinostat] (partner 1 µM)
Outline: as §1

SGI-1776 + Decitabine = compound: CN1CCC(CNc2ccc3ncc(-c4cccc(OC(F)(F)F)c4)n3n2)CC1 [SGI-1776] + Nc1ncn([C@H]2C[C@H](O)[C@@H](CO)O2)c(=O)n1 [Decitabine] (partner 2 µM)
Outline: as §1

Entinostat + Palbociclib = compound: Nc1ccccc1NC(=O)c1ccc(CNC(=O)OCc2cccnc2)cc1 [Entinostat] + CC(=O)c1c(C)c2cnc(Nc3ccc(N4CCNCC4)cn3)nc2n(C2CCCC2)c1=O [Palbociclib] (partner 0.5 µM)
Outline: as §1

Cell Line | relative viability (SGI-1776 + Alpelisib; first compound 0.08 µM) | relative viability (SGI-1776 + Alpelisib; first compound 0.8 µM) | relative viability (SGI-1776 + Alpelisib; first compound 2.53 µM) | relative viability (SGI-1776 + Alpelisib; first compound 8 µM) | relative viability (Entinostat + Vorinostat; first compound 0.02 µM) | relative viability (Entinostat + Vorinostat; first compound 0.06325 µM) | relative viability (Entinostat + Vorinostat; first compound 0.2 µM) | relative viability (Entinostat + Vorinostat; first compound 0.6325 µM) | relative viability (Entinostat + Vorinostat; first compound 2 µM) | relative viability (SGI-1776 + Decitabine; first compound 0.08 µM) | relative viability (SGI-1776 + Decitabine; first compound 0.8 µM) | relative viability (SGI-1776 + Decitabine; first compound 2.53 µM) | relative viability (SGI-1776 + Decitabine; first compound 8 µM) | relative viability (Entinostat + Palbociclib; first compound 0.02 µM) | relative viability (Entinostat + Palbociclib; first compound 0.06325 µM) | relative viability (Entinostat + Palbociclib; first compound 0.2 µM) | relative viability (Entinostat + Palbociclib; first compound 0.6325 µM) | relative viability (Entinostat + Palbociclib; first compound 2 µM)
NCI-H1355 | 0.835 | 0.97 | 0.847 | 0.66 | 0.604 | 0.638 | 0.62 | 0.504 | 0.381 | 0.342 | 0.313 | 0.416 | 0.359 | 0.416 | 0.417 | 0.332 | 0.328 | 0.25
NCI-H322M | 0.883 | 0.934 | 0.928 | 0.756 | 0.967 | 0.975 | 0.981 | 0.876 | 0.808 | 0.724 | 0.753 | 0.65 | 0.658 | 0.499 | 0.533 | 0.495 | 0.546 | 0.516
NCI-H1395 | 1.09 | 1.02 | 0.996 | 0.631 | 1.05 | 0.96 | 0.829 | 0.65 | 0.463 | 0.721 | 0.708 | 0.58 | 0.674 | 0.602 | 0.773 | 0.802 | 0.603 | 0.523
NCI-H2023 | 0.595 | 0.546 | 0.546 | 0.414 | 0.541 | 0.536 | 0.318 | 0.118 | 0.0713 | 0.224 | 0.207 | 0.228 | 0.182 | 0.319 | 0.312 | 0.258 | 0.151 | 0.0658
NCI-H1666 | 1.06 | 1 | 1.01 | 0.49 | 1.05 | 0.979 | 0.934 | 0.835 | 0.601 | 0.8 | 0.737 | 0.729 | 0.663 | 0.672 | 0.684 | 0.697 | 0.65 | 0.565
HARA | 1.01 | 0.935 | 0.803 | 0.678 | 0.541 | 0.482 | 0.329 | 0.324 | 0.182 | 0.574 | 0.72 | 0.529 | 0.448 | 0.301 | 0.298 | 0.258 | 0.272 | 0.266
NCI-H1944 | 0.877 | 0.752 | 0.807 | 0.649 | 0.59 | 0.576 | 0.452 | 0.307 | 0.246 | 0.427 | 0.439 | 0.468 | 0.396 | 0.301 | 0.286 | 0.234 | 0.223 | 0.176
NCI-H2405 | 0.865 | 0.766 | 0.739 | 0.383 | 1.23 | 1.02 | 0.979 | 0.693 | 0.42 | 0.715 | 0.683 | 0.716 | 0.64 | 0.515 | 0.531 | 0.571 | 0.532 | 0.453
201T | 1.02 | 1.03 | 1.08 | 0.999 | 0.995 | 1.07 | 0.95 | 0.691 | 0.491 | 0.847 | 0.894 | 0.886 | 0.827 | 0.384 | 0.376 | 0.426 | 0.378 | 0.373
PC-3 [JPC-3] | 1.1 | 0.946 | 1.06 | 0.971 | 1.15 | 0.911 | 0.597 | 0.525 | 0.36 | 0.816 | 0.824 | 0.786 | 0.71 | 0.529 | 0.47 | 0.486 | 0.442 | 0.378
Calu-6 | 1.01 | 0.955 | 1.23 | 0.628 |  |  |  |  |  |  |  |  |  |  |  |  |  | 
NCI-H1734 | 0.69 | 0.798 | 0.733 | 0.559 | 0.846 | 0.861 | 0.84 | 0.604 | 0.489 | 0.517 | 0.499 | 0.567 | 0.486 | 0.385 | 0.375 | 0.402 | 0.347 | 0.256
NCI-H2342 |  |  |  |  | 0.855 | 0.859 | 0.709 | 0.772 | 0.691 | 0.776 | 0.707 | 0.658 | 0.712 | 0.528 | 0.523 | 0.53 | 0.49 | 0.485
ChaGo-K-1 |  |  |  |  | 0.765 | 0.763 | 0.768 | 0.626 | 0.464 | 0.56 | 0.542 | 0.558 | 0.47 | 0.976 | 0.931 | 0.989 | 0.852 | 0.75
NCI-H1563 | 0.928 | 1 | 0.874 | 0.695 |  |  |  |  |  |  |  |  |  |  |  |  |  | 
IA-LM | 0.883 | 0.977 | 0.764 | 0.874 | 0.972 | 0.997 | 1.13 | 0.863 | 0.682 |  |  |  |  |  |  |  |  | 
NCI-H1299 | 1.11 | 1.01 | 1.07 | 1.08 |  |  |  |  |  |  |  |  |  |  |  |  |  | 
CAL-12T | 1.23 | 1.37 | 1.66 | 1.08 | 0.606 | 0.892 | 0.734 | 0.52 | 0.423 |  |  |  |  | 0.516 | 0.602 | 0.637 | 0.384 | 0.266
SW 900 |  |  |  |  | 0.634 | 0.485 | 0.476 | 0.376 | 0.264 | 0.368 | 0.412 | 0.49 | 0.456 | 0.547 | 0.582 | 0.576 | 0.509 | 0.344
NCI-H1648 |  |  |  |  | 0.65 | 0.336 | 0.345 | 0.342 | 0.208 | 0.432 | 0.414 | 0.461 | 0.497 | 0.297 | 0.25 | 0.259 | 0.247 | 0.258
A549 | 0.787 | 0.701 | 0.852 | 0.394 |  |  |  |  |  | 0.303 | 0.238 | 0.285 | 0.097 |  |  |  |  | 
NCI-H1792 | 0.765 | 0.663 | 0.696 | 0.552 |  |  |  |  |  | 0.651 | 0.508 | 0.658 | 0.527 | 0.709 | 0.745 | 0.723 | 0.626 | 0.523
NCI-H2228 | 0.776 | 0.636 | 0.727 | 0.239 | 0.675 | 0.683 | 0.761 | 0.406 | 0.32 |  |  |  |  | 0.617 | 0.747 | 0.691 | 0.35 | 0.244
